Results taken from patent US7196110B2, “N-substituted tricyclic 3-aminopyrazoles as inhibitors for the treatment of cell proliferative disorders” (Janssen Phamaceutica N.V., priority 2002, dated 2007).

Molecular target: T1, PDGF-receptor beta enzyme comprising the tyrosine kinase domain (Homo sapiens, UniProt P09619)
T1 construct: from amino acid 545 to 1106 of GenBank Access NO: AAA36427
Test: Inhibition of PDGF-receptor kinase activity (cell-free, PLC1 peptide, 33P Flashplate)
Format: biochemical
Conditions: PDGF-R kinase activity; for inhibition at 10 µM: compound at 10 uM, read-out: Percent Inhibition @ 10 uM; for IC50: read-out: IC50
Method in brief: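 The IC50 is the inhibitor level halving kinase activity relative to inhibitor-free wells, measured as 33P captured on a streptavidin-bound biotin-PLC1 peptide. The reaction ran 60 min at 30 °C in pH 8 Tris buffer with 1 mM DTT, 5 μM ATP and the 545–1106 kinase-domain enzyme.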

T1 sequence (P09619 545-1106): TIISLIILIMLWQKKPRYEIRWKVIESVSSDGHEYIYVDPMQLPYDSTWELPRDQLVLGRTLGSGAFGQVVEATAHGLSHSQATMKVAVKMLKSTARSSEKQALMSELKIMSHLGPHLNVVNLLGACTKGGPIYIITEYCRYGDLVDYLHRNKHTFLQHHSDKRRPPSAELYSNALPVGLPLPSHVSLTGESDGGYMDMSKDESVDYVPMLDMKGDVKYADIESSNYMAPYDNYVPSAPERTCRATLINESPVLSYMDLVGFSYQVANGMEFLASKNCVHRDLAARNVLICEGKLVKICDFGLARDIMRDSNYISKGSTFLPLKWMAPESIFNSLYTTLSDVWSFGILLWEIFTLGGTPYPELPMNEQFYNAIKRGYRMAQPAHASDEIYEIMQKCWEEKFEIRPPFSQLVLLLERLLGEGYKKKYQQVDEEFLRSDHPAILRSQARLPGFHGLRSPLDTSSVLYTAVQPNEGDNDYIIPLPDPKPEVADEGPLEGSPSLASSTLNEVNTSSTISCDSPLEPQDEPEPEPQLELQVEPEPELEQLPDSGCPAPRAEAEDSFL

Row | inhibition at 10 µM | IC50 | Structure (SMILES)
1 | 97.5% | 139 nM | CCC1c2cc(OC)c(OC)cc2-c2c1c(Nc1cccc(Br)c1)nn2C(=O)COCc1ccccc1 (stereo not drawn) [Compound 519, 2-Benzyloxy-1-[3-(3-bromo-phenylamino)-4-ethyl-6,7-dimethoxy-4H-indeno[1,2-c]pyrazol-1-yl]-ethanone]
2 | 100% | 65.2 nM | COc1cc2c(cc1OC)-c1c(c(Nc3cccc(F)c3)nn1C(=O)NCCN1CCCC1)C2 [Compound 520, 3-(3-Fluoro-phenylamino)-6,7-dimethoxy-4H-indeno[1,2-c]pyrazole-1-carboxylic acid (2-pyrrolidin-1-yl-ethyl)-amide]
3 | 97% | 55.9 nM | COc1cc2c(cc1OC)-c1c(c(Nc3cccc(F)c3)nn1C(=O)NCCN1CCOCC1)C2 [Compound 521, 3-(3-Fluoro-phenylamino)-6,7-dimethoxy-4H-indeno[1,2-c]pyrazole-1-carboxylic acid (2-morpholin-4-yl-ethyl)-amide]
4 | 94% | 791 nM | COc1cc2c(cc1OC)-c1nn(C(=O)NCCN3CCOCC3)c(Nc3cccc(F)c3)c1C2 [Compound 522, 3-(3-Fluoro-phenylamino)-6,7-dimethoxy-4H-indeno[1,2-c]pyrazole-2-carboxylic acid (2-morpholin-4-yl-ethyl)-amide]
5 | 98.5% | 193 nM | COc1cc2c(cc1OC)-c1c(c(Nc3cccc(F)c3)nn1C(=O)NCCNCCO)C2 [Compound 523, 3-(3-Fluoro-phenylamino)-6,7-dimethoxy-4H-indeno[1,2-c]pyrazole-1-carboxylic acid [2-(2-hydroxy-ethylamino)-ethyl]-amide]
6 | 78% | 2480 nM | CNCCNC(=O)n1nc(Nc2cccc(F)c2)c2c1-c1cc(OC)c(OC)cc1C2 [Compound 524, 3-(3-Fluoro-phenylamino)-6,7-dimethoxy-4H-indeno[1,2-c]pyrazole-1-carboxylic acid (2-methylamino-ethyl)-amide]
7 | 33% | 43200 nM | COc1cc2c(cc1OC)-c1c(c(Nc3cccc(F)c3)nn1C(=O)NCCNC(=O)C(C)C)C2 [Compound 525, 3-(3-Fluoro-phenylamino)-6,7-dimethoxy-4H-indeno[1,2-c]pyrazole-1-carboxylic acid (2-isobutyrylamino-ethyl)-amide]
8 | 73% | 8090 nM | COc1cc2c(cc1OC)-c1c(c(Nc3cccc(F)c3)nn1C(=O)NCCNC(C)=O)C2 [Compound 526, 3-(3-Fluoro-phenylamino)-6,7-dimethoxy-4H-indeno[1,2-c]pyrazole-1-carboxylic acid (2-acetylamino-ethyl)-amide]
9 | 46.5% | 17500 nM | C=C(C)C(=O)OCCNC(=O)n1nc(Nc2cccc(F)c2)c2c1-c1cc(OC)c(OC)cc1C2 [Compound 527, 2-Methyl-acrylic acid 2-{[3-(3-fluoro-phenylamino)-6,7-dimethoxy-4H-indeno[1,2-c]pyrazole-1-carbonyl]-amino}-ethyl ester]
10 | 93.5% | 196 nM | C=C(C)C(=O)OCCNC(=O)n1nc2c(c1Nc1cccc(F)c1)Cc1cc(OC)c(OC)cc1-2 [Compound 528, 2-Methyl-acrylic acid 2-{[3-(3-fluoro-phenylamino)-6,7-dimethoxy-4H-indeno[1,2-c]pyrazole-2-carbonyl]-amino}-ethyl ester]
11 | 44% | 10600 nM | COc1cc2c(cc1OC)-c1nn([C@@H]3O[C@H](C(=O)O)[C@@H](O)[C@H](O)[C@H]3O)c(Nc3cccc(F)c3)c1C2 [Compound 529, 6-[3-(3-Fluoro-phenylamino)-6,7-dimethoxy-4H-indeno[1,2-c]pyrazol-2-yl]-3,4,5-trihydroxy-tetrahydro-pyran-2-carboxylic acid]
12 | 71.5% | 4150 nM | COC(=O)C(NC(=O)n1nc(Nc2cccc(F)c2)c2c1-c1cc(OC)c(OC)cc1C2)C(C)C (stereo not drawn) [Compound 530, 2-{[3-(3-Fluoro-phenylamino)-6,7-dimethoxy-4H-indeno[1,2-c]pyrazole-1-carbonyl]-amino}-3-methyl-butyric acid methyl ester]
13 | 90% | 24 nM | COc1cc2c(cc1OC)-c1c(c(Nc3cccc(F)c3)nn1C(=O)CCC(N)=O)C2 [Compound 531, 4-[3-(3-Fluoro-phenylamino)-6,7-dimethoxy-4H-indeno[1,2-c]pyrazol-1-yl]-4-oxo-butyramide]
14 | 42% | – | COc1cc2c(cc1OC)-c1c(c(Nc3cccc(F)c3)nn1C(=O)NCCNC(=O)c1ccccc1)C2 [Compound 532, 3-(3-Fluoro-phenylamino)-6,7-dimethoxy-4H-indeno[1,2-c]pyrazole-1-carboxylic acid (2-benzoylamino-ethyl)-amide]
15 | 94% | 933 nM | COc1cc2c(cc1OC)-c1c(c(Nc3cccc(F)c3)nn1CC(N)=O)C2 [Compound 534, 2-[3-(3-Fluoro-phenylamino)-6,7-dimethoxy-4H-indeno[1,2-c]pyrazol-1-yl]-acetamide]
16 | 105% | 32.2 nM | COc1cc2c(cc1OC)-c1nn(C(=O)CC(=O)N3CCCC3)c(Nc3cccc(F)c3)c1C2 [Compound 535, 1-[3-(3-Fluoro-phenylamino)-6,7-dimethoxy-4H-indeno[1,2-c]pyrazol-2-yl]-3-pyrrolidin-1-yl-propane-1,3-dione]
17 | 88% | 436 nM | COc1cc2c(cc1OC)-c1c(c(Nc3cccc(F)c3)nn1C(=O)CC(=O)N1CCCC1)C2 [Compound 536, 1-[3-(3-Fluoro-phenylamino)-6,7-dimethoxy-4H-indeno[1,2-c]pyrazol-1-yl]-3-pyrrolidin-1-yl-propane-1,3-dione]
18 | 104% | 330 nM | CCN(CC)C(=O)CC(=O)n1nc(Nc2cccc(F)c2)c2c1-c1cc(OC)c(OC)cc1C2 [Compound 537, N,N-Diethyl-3-[3-(3-fluoro-phenylamino)-6,7-dimethoxy-4H-indeno[1,2-c]pyrazol-1-yl]-3-oxo-propionamide]
19 | 65% | – | COc1cc2c(cc1OC)C(C(C)C)c1c-2n[nH]c1Nc1cccc(Br)c1 (stereo not drawn) [Compound 538, (3-Bromo-phenyl)-(4-isopropyl-6,7-dimethoxy-2,4-dihydro-indeno[1,2-c]pyrazol-3-yl)-amine]
20 | 47% | 14700 nM | COc1cc2c(cc1OC)C(C(C)C)c1c-2n[nH]c1Nc1cccc(Cl)c1 (stereo not drawn) [Compound 540, (3-Chloro-phenyl)-(4-isopropyl-6,7-dimethoxy-2,4-dihydro-indeno[1,2-c]pyrazol-3-yl)-amine]
21 | 50% | 44200 nM | COc1cccc(Nc2[nH]nc3c2C(C(C)C)c2cc(OC)c(OC)cc2-3)c1 (stereo not drawn) [Compound 541, (4-lsopropyl-6,7-dimethoxy-2,4-dihydro-indeno[1,2-c]pyrazol-3-yl)-(3-methoxy-phenyl)-amine]
22 | 21% | – | COc1cc2c(cc1OC)-c1c(c(Nc3cccc(F)c3)nn1C(=O)NCCNC(=O)c1ccccc1O)C2 [Compound 542, 3-(3-Fluoro-phenylamino)-6,7-dimethoxy-4H-indeno[1,2-c]pyrazole-1-carboxylic acid [2-(2-hydroxy-benzoylamino)-ethyl]-amide]
23 | 60% | – | COc1cc2c(cc1OC)-c1c(c(Nc3cccc(F)c3)nn1C(=O)NCCOCCOCCO)C2 [Compound 544, 3-(3-Fluoro-phenylamino)-6,7-dimethoxy-4H-indeno[1,2-c]pyrazole-1-carboxylic acid {2-[2-(2-hydroxy-ethoxy)-ethoxy]-ethyl}-amide]
24 | 72.5% | – | CCC1c2cc(OC)c(OC)cc2-c2c1c(Nc1cccc(Br)c1)nn2C(=O)c1ccccc1 (stereo not drawn) [Compound 546, [3-(3-Bromo-phenylamino)-4-ethyl-6,7-dimethoxy-4H-indeno[1,2-c]pyrazol-1-yl]-phenyl-methanone]
25 | 68.5% | – | CCC1c2cc(OC)c(OC)cc2-c2c1c(Nc1cccc(Br)c1)nn2C(=O)OCCOCCOCCO (stereo not drawn) [Compound 547, 3-(3-Bromo-phenylamino)-4-ethyl-6,7-dimethoxy-4H-indeno[1,2-c]pyrazole-1-carboxylic acid 2-[2-(2-hydroxy-ethoxy)-ethoxy]-ethyl ester]
26 | 82.5% | 214 nM | COc1cc2c(cc1OC)C(C)c1c(Nc3cccc(Br)c3)nn(C(=O)OCCOCCOCCO)c1-2 (stereo not drawn) [Compound 548, 3-(3-Bromo-phenylamino)-6,7-dimethoxy-4-methyl-4H-indeno[1,2-c]pyrazole-1-carboxylic acid 2-[2-(2-hydroxy-ethoxy)-ethoxy]-ethyl ester]
27 | 106% | 91.1 nM | COc1cc2c(cc1OCc1ccccc1)-c1n[nH]c(Nc3cccc(F)c3)c1C2 [Compound 549, (7-Benzyloxy-6-methoxy-2,4-dihydro-indeno[1,2-c]pyrazol-3-yl)-(3-fluoro-phenyl)-amine]
28 | 99.5% | 6.5 nM | COc1cc2c(cc1OC)[C@@H](C)c1c-2n[nH]c1Nc1cccc(Br)c1 [Compound 553, (4R)-N-(3-bromo-phenyl)-(6,7-dimethoxy-4-methyl-2,4-dihydro-indeno[1,2-c]pyrazol-3-yl)-amine]
29 | 102% | 32.5 nM | COc1cc2c(c(NC(C)=O)c1OC)Cc1c-2n[nH]c1Nc1cccc(F)c1 [Compound 557, N-[3-(3-Fluoro-phenylamino)-6,7-dimethoxy-2,4-dihydro-indeno[1,2-c]pyrazol-5-yl]-acetamide]
30 | 102% | 12.1 nM | COc1cc2c(c(N)c1OC)Cc1c-2n[nH]c1Nc1cccc(F)c1 [Compound 558, N3-(3-Fluoro-phenyl)-6,7-dimethoxy-2,4-dihydro-indeno[1,2-c]pyrazole-3,5-diamine]
